The values that follow come from patent US20240139167A1, “LYSOSOME-ASSOCIATED MEMBRANE PROTEIN TARGETING COMPOUNDS AND USES THEREOF” (HADASIT MEDICAL RESEARCH SERVICES AND DEVELOPMENT LTD., priority 2021, published 2024).

Test [1] has as its system Gbe^ys/ys mice. Kind of test: Survival, weight and motor phenotypes in APBD mouse model. Type of test: in vivo. The source says: Pictures of 7-months old Gbe^ys/ys mice treated with vehicle (1L), or Compound 1 (1M) for 3 months prior to photography.
The presented experiments combine in vivo, ex vivo and in vitro studies on the therapeutic potential of the newly discovered compound Compound 1 for treating APBD. In the in vivo section, the inventors have tested Compound 1 for its capacity to correct disease phenotypes in Gbe^ys/ys female mice. Two arms, 5% DMSO vehicle and Compound 1, of initially n=7-9 animals each were used. […] Additional open field, gait, and extension reflex tests (FIGS. 1E-1H) also included a C57BL/6 wild type control arm of n=9 animals. Animals were excluded from the experiment if weight was reduced by >10% between sequential weightings or by >20% from initiation. […] 150 μL of 250 mg/kg Compound 1 in 5% DMSO were injected twice a week. Vehicle control was 5% DMSO. Injection was intravenous (IV) for the first month, followed by subcutaneous (SC) injection due to lack of injection space and scaring in animal tails. The inventors initiated the injections either at the age of 4 months, two months prior to disease onset, assuming a preferred prophylactic effect, or at the 6 months age of onset for comparison. Treatment was continued until the age of 10 months. The effect of Compound 1 on various motor parameters was tested approximately every two weeks. At the end of these experiments, some of the mice were sacrificed by cervical dislocation and tissues from n=2 wild type, n=7 Gbe^ys/ys vehicle-treated, and n=9 Compound 1-treated mice were collected, sectioned, fixed, and stained for diastase-resistant PG by PAS (FIGS. 2A-2C). Tissue glycogen was determined biochemically as described. In addition, Compound 1 pharmacokinetic profile was determined by LC-MS/MS in serum and tissues derived from n=3 mice/time point. Experimenters were blinded to treatment allocation.
In FIGS. 1A-1M the significance of overall trends was tested by Two-way ANOVA with repeated measures. […] The Bonferroni test was used to compare between Compound 1 and vehicle in a way which corrects for the multiple comparisons and is therefore very robust (since the threshold for determining significance at each time point is reduced in a manner inversely proportional to the number of comparisons). […] In FIGS. 4D and 6E the inventors used One Way ANOVA with Sidak's post-hoc correction for multiple comparisons. Other statistical tests used were Student t-tests.

In test [2] the target is T1, deglycosylated luminal LAMP1 domain (Homo sapiens, UniProt P11279).
T1 construct: repeated the SPR experiments with a chemically deglycosylated luminal LAMP1 domain
T1 sequence (P11279 29-382): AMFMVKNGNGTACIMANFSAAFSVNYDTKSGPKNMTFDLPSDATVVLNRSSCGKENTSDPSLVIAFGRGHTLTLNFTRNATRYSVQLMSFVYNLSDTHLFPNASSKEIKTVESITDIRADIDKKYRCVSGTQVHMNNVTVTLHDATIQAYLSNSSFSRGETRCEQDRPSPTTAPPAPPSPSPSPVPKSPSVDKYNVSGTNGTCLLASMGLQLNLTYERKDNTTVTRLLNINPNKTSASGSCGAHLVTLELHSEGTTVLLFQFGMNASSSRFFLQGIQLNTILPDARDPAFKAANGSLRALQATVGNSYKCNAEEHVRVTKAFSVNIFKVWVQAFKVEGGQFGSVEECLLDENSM
Kind of test: SPR with chemically deglycosylated LAMP1. The format is binding. As for the experimental part:
The inventors have investigated the mechanism of action of 144DG11. To that end, the inventors first decided to determine its molecular target. Nematic protein organization technique (NPOT, Inoviem, Ltd.) was applied to homogenates of APBD patient fibroblasts. The NPOT analysis has discovered protein hetero assemblies uniquely generated around 144DG11 only when it was added to the cell homogenates (FIG. 5A). The next step in this analysis has identified the interactome of protein targets interacting with 144DG11 in APBD patients' fibroblasts. […] Moreover, the inventors have tested by cellular thermal shift assay the specific interaction of 144DG11 with 6 of the 8 targets discovered by NPOT. […] This finding relates to a novel pathogenic hypothesis connecting cellular glycogen overload with glycogen trafficking to lysosomes via Starch Binding Domain containing Protein 1. To validate 144DG11's interaction with LAMP1, the inventors have used surface plasmon resonance (SPR) technology. […] The inventors hypothesized that this slow rate of association could be explained by inhibited diffusion of 144DG11 due to the bulky oligosaccharides at the glycosylation sites. […] In the search for a putative binding site for Compound 1 in LAMP1, the inventors have analyzed the N- and C-terminal subdomains of its luminal domain (residues A29-R195 and S217-D378, respectively), which have a similar topology. […]

Test [3] deals with PD primary fibroblasts. Kind of test: PAS staining of glycogen in Pompe disease fibroblasts. The format is cell-based, human. Conditions: 24 h, 50 μM; listed as 144DG11. The source says:
Yellow, Calcein used for cell segmentation, Blue, DAPI nuclear stain.

Test [4] deals with HC and PD patient fibroblasts. Kind of test: Seahorse ATP rate assay in Pompe disease fibroblasts. The format is cell-based, human. As for the experimental part:
FIG. 17 includes a vertical bar graph showing glycolytic (1) and mitochondrial (2) ATP production determined by Agilent's Seahorse machine and ATP rate assay kit. HC and PD patient fibroblasts were serum/glucose-starved for 48 h and then full medium was replenished for 24 h without (untreated), or with (chronic) 50 μM 144DG11. Acute, 50 μM 144DG11 was added on assay for 20 min after 24 h of serum/glucose replenishment. Readings were normalized to cell number as determined by Crystal Violet staining. Shown are mean and SD values based on n=6 repeats. In acutely 144DG11-treated PD fibroblasts, glycolytic and total ATP production was increased, as compared to untreated PD cells (p<0.002, One Way ANOVA with Sidak's post-hoc correction for multiple comparisons).

Each structure is given as a SMILES string. Entries after “also recorded” stand apart in the source; their conditions may differ.

Take `COCCN(Cc1sccc1C)C(=O)c1cc(C)nc(O)c1` [Compound 1]: the “animal weight over time” value in test [1] (250 mg/kg twice a week from age 4 months) was “mitigated the decline in animal weight over time”. Besides, in test [1] (250 mg/kg twice a week from age 4 months, vs 5% DMSO vehicle), the animal survival entry is “significantly improved animal survival”. For the same compound, in test [1] (administered after disease onset at the age 6 months), the “ameliorating effect on open field, weight and overall extension reflex” value is recorded as “ameliorating effect did not take place”. Moreover, in test [1] (administered at onset (6 months), at the age of 9 months), the Extension reflex result is on record as “only parameter improved by the compound from the advanced stage of the disease”. For the same compound, the open field performance entry in test [1] (from 8 months, 134 days post injection) is listed as “improved open field performance”. Moreover, in test [1] (mouse age of 9 months), the “gait (stride length)” value is listed as “improved gait, or increased stride length”. In addition, the overall extension reflex result in test [1] (throughout the study period, p<0.05) was “significantly improved”. Further, the “binding to deglycosylated LAMP1” value in test [2] was “did not bind”. Besides, in test [3], the “glycogen (PAS staining)” value is on record as “reduce glycogen; also recorded: significantly lowered PAS staining”. The “effect on ATP production” value in test [4] (24 h pre-treatment) is recorded as “not significant”. Moreover, in test [4] (PD fibroblasts, 50 μM), the “overall ATP production” value is given as “increased” and the “relative contribution of glycolytic ATP production at the expense of mitochondrial (OxPhos) ATP production” value is on record as “increased”. The “glycolytic and total ATP production” value in test [4] (PD fibroblasts, acute 50 μM 20 min, p<0.002) is on record as “increased”.
